≈ marks a conversion by molar mass, not a printed value.
Assay: physchem

| solubility (0.1N HCl, pH 1, simulated gastric fluid) | solubility (aqueous solution, pH 6.3, aqueous buffer) | Structure (SMILES) | solubility (pH 1.47, simulated gastric fluid) | solubility (pH 3.27, aqueous buffer) | solubility (pH 4.11, aqueous buffer) | solubility (pH 5.02, aqueous buffer) | solubility (pH 6.27, aqueous buffer) |
| --- | --- | --- | --- | --- | --- | --- | --- |
| 290 µg/mL (≈ 574 µM) | 95 µg/mL (≈ 188 µM) | CC(C)CN(C[C@@H](O)[C@H](Cc1ccccc1)NC(=O)O[C@H]1CCOC1)S(=O)(=O)c1ccc(N)cc1 (relative stereo) [amprenavir, [3S-[3R*(1R*,2S*)]]-[3-[[(4-aminophenyl)sulfonyl](2-methyl-propyl)amino]-2-hydroxy-1-phenylmethyl)propyl]-tetrahydro-3-furanyl ester, reference compound] |  |  |  |  |  |
|  |  | CC(C)CN(C[C@@H](OP(=O)([O-])[O-])[C@H](Cc1ccccc1)NC(=O)O[C@H]1CCOC1)S(=O)(=O)c1ccc(N)cc1.[Ca+2] [compound of formula (I), calcium (3S) tetrahydro-3-furanyl (1S,2R)-3-[[(4-aminophenyl)sulfonyl](isobutyl)amino]-1-benzyl-2-(phosphonooxy)propylcarbamate] | 3200 µg/mL | 61100 µg/mL | 9410 µg/mL | 3200 µg/mL | 531 µg/mL |
